The values below come from PMC10307035, “Antiviral activity of singlet oxygen-photogenerating perylene compounds against SARS-CoV-2: Interaction with the viral envelope and photodynamic virion inactivation” (Virus Research, 2023).

Where two headings read alike, the source gives them in different places. Bounds are passed on as bounds.

Holding throughout (type): cell-based
In assay [1] the test system is SARS-CoV-2 (Wuhan variant). Put plainly: microbe, parasite or virus in culture. The settings on record: for inhibition of SARS-CoV-2 replication in virus-infected cells: 2 and 10 µM, Vero cells.
For assay [2], the system named is SARS-CoV-2 variants Alpha (B.1.1.7), Beta (B.1.351), Gamma (p.1), Delta (B.1.617.2), and Omicron (B.1.1.529). The settings on record: 1 and 10 µM, 48 h, Vero cells.
Assay [3] relates to SARS-CoV-2 (Wuhan variant). The assay is described as follows: Virucidal activity against SARS-CoV-2 (plaque assay). Particulars: 10 µM, 120 min at 37 °C in the dark.
Where [4] appears, read: Severe acute respiratory syndrome coronavirus 2, Vero, 48 h, read-out: App. EC50.
Where [5] appears, read: Severe acute respiratory syndrome coronavirus 2, Vero, read-out: EC50.

On to `O=c1[nH]c(=O)n([C@@H]2O[C@H](CO)[C@@H](O)[C@@H]2O)cc1C#Cc1ccc2c3cccc4cccc(c5cccc1c52)c43` [Compound 1, 5-(perylen-3-yl)ethynyl-arabino-uridine], for which the concentration for a half-maximal effect (EC50) in assay [1] (setting [4]) came to 1120 nM; in assay [1] (setting [5]), 406 nM; in assay [1] (read-out: EC50), 406 nM.
Take `O=c1[nH]c(=O)n([C@H]2C[C@H](O)[C@@H](CO)O2)cc1C#Cc1ccc2c3cccc4cccc(c5cccc1c52)c43` [Compound 2, 5-(perylen-3-yl)ethynyl-2′-deoxy-uridine]: the “replication of all tested SARS-CoV-2 variants” value in assay [2] is listed as “efficiently inhibited”. Further, the EC50 in assay [1] (setting [4]) came to 843 nM; in assay [1] (setting [5]) it was 256 nM; in assay [1] (read-out: EC50), 256 nM.
Take `O=c1[nH]cc(C#Cc2ccc3c4cccc5cccc(c6cccc2c63)c54)c(=O)[nH]1` [Compound 3]: the EC50 in assay [1] (setting [4]) was above 5000 nM; in assay [1] (setting [5]) it was above 2500 nM.
Take `Cn1cc(C#Cc2ccc3c4cccc5cccc(c6cccc2c63)c54)c(=O)n(C)c1=O` [Compound 4]: the results for the EC50 in assay [1] (setting [4]), in assay [1] (setting [5]) and in assay [1] (read-out: EC50) were 2060 nM, 406 nM and 406 nM, respectively.
On to `CC(C)(C)C(=O)OCn1c(=O)c(C#Cc2ccc3c4cccc5cccc(c6cccc2c63)c54)cn(CC(=O)O)c1=O` [Compound 5], for which the results for the EC50 in assay [1] (setting [4]), in assay [1] (setting [5]) and in assay [1] (read-out: EC50) were above 5000 nM, around 2000 nM and 2050 nM, respectively.
Regarding `CC(C)(C)C(=O)OCn1c(=O)c(C#Cc2ccc3c4cccc5cccc(c6cccc2c63)c54)cn(CC(=O)NCCCCO)c1=O` [Compound 6], the values for the EC50 in assay [1] (setting [4]) and in assay [1] (setting [5]) were 781 nM and 91.5 nM, respectively.
Consider `CC(C)(C)C(=O)OCn1c(=O)c(C#Cc2ccc3c4cccc5cccc(c6cccc2c63)c54)cn(CC(=O)NC[C@@H](O)C(C)(C)CO)c1=O` [Compound 7], for which, in assay [1], the “inhibition of SARS-CoV-2 replication in virus-infected cells” value was “complete inhibition”. Besides, the concentration for a half-maximal effect (EC50) is 1170 nM in assay [1] (setting [4]) and 417 nM in assay [1] (setting [5]).
Take `CCCCNC(=O)Cn1cc(C#Cc2ccc3c4cccc5cccc(c6cccc2c63)c54)c(=O)n(COC(=O)C(C)(C)C)c1=O` [Compound 8]: the EC50 is above 5000 nM in assay [1] (setting [4]) and around 2000 nM in assay [1] (setting [5]).
Turning to `CC(C)(C)C(=O)OCn1c(=O)c(C#Cc2ccc3c4cccc5cccc(c6cccc2c63)c54)cn(CC(=O)NCCO)c1=O` [Compound 9], the EC50 in assay [1] (setting [4]) came out at 781 nM; in assay [1] (setting [5]), 140 nM.
`CC(C)(C)C(=O)OCn1c(=O)c(C#Cc2ccc3c4cccc5cccc(c6cccc2c63)c54)cn(CC(=O)NCCCO)c1=O` [Compound 10]: the concentration giving a half-maximal response (EC50) in assay [1] (setting [4]) was found to be 1930 nM; in assay [1] (setting [5]), 382 nM.
`CC(C)(C)C(=O)OCn1c(=O)c(C#Cc2ccc3c4cccc5cccc(c6cccc2c63)c54)cn(CC(=O)NCCCCCO)c1=O` [Compound 11]: the results for the concentration for a half-maximal effect (EC50) in assay [1] (setting [4]) and in assay [1] (setting [5]) were 1070 nM and 433 nM, respectively.
As for `CC(C)(C)C(=O)OCn1c(=O)c(C#Cc2ccc3c4cccc5cccc(c6cccc2c63)c54)cn(CC(=O)NCCCCCCO)c1=O` [Compound 12], the values for the EC50 in assay [1] (setting [4]), in assay [1] (setting [5]) and in assay [1] (read-out: EC50) were above 5000 nM, 812 nM and 812 nM, respectively.
Take `CC(C)(C)C(=O)OCn1c(=O)c(C#Cc2ccc3c4cccc5cccc(c6cccc2c63)c54)cn(CC(=O)N(CCO)CCO)c1=O` [Compound 13]: the “replication of all tested SARS-CoV-2 variants” value in assay [2] is given as “efficiently inhibited”. For the same compound, the “inhibition of SARS-CoV-2 replication in virus-infected cells” value in assay [1] was “complete inhibition”. Further, the EC50 worked out at 622 nM in assay [1] (setting [4]) and 274 nM in assay [1] (setting [5]).
For `CN(C)c1ccc(C#Cc2ccc3c4cccc5cccc(c6cccc2c63)c54)cc1` [Compound 14], the EC50 in assay [1] (setting [4]) was above 5000 nM; in assay [1] (setting [5]) it was above 2500 nM.
Take `CC(=O)Nc1ccc(C#Cc2ccc3c4cccc5cccc(c6cccc2c63)c54)cc1` [Compound 15]: the EC50 in assay [1] (setting [4]) was 325 nM; in assay [1] (setting [5]), 63 nM; in assay [1] (read-out: EC50), 63.1 nM.
As to `O=C(O)c1ccc(-c2ccc3c4cccc5cccc(c6cccc2c63)c54)s1` [Compound 16], the EC50 in assay [1] (setting [4]) was found to be 2560 nM; in assay [1] (setting [5]), 536 nM; in assay [1] (read-out: EC50), 537 nM.
In the case of `O=C(NCCCCO)c1ccc(-c2ccc3c4cccc5cccc(c6cccc2c63)c54)s1` [Compound 17], the “replication of all tested SARS-CoV-2 variants” value in assay [2] was “efficiently inhibited”. Besides, the “virucidal effect against SARS-CoV-2 (ranking)” value in assay [3] was “strongest virucidal effect”. For the same compound, the EC50 in assay [1] (setting [4]) and in assay [1] (setting [5]) was below 4 nM each time.
As to `O=C(c1ccc(-c2ccc3c4cccc5cccc(c6cccc2c63)c54)s1)N(CCO)CCO` [Compound 18], the EC50 in assay [1] (setting [4]) is 132 nM; in assay [1] (setting [5]), 19 nM; in assay [1] (read-out: EC50) it was 19.1 nM.
With `CCCCNC(=O)c1ccc(-c2ccc3c4cccc5cccc(c6cccc2c63)c54)s1` [Compound 19], the EC50 in assay [1] (setting [4]) turned out to be 470 nM; in assay [1] (setting [5]), 98 nM; in assay [1] (read-out: EC50) it was 98.2 nM.
On to `O=C(O)c1ccc2c3cccc4cccc(c5cccc1c52)c43` [Compound 20], for which the half-maximal effective concentration (EC50) in assay [1] (setting [4]) was above 5000 nM; in assay [1] (setting [5]) it was above 2500 nM.
